Source: publication PMC6934184, “Selective DNA-PKcs inhibition extends the therapeutic index of localized radiotherapy and chemotherapy” (The Journal of Clinical Investigation, 2019)

Biological target: T1, FLT1 (VEGFR1) (Homo sapiens, UniProt P17948)
T1 construct: purchased Thermo Fisher Scientific (Life Technologies) SelectScreen
Experiment: SelectScreen Z'LYTE
Format: biochemical
Method in brief: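 NU5455 was profiled across the SelectScreen Broad panel of kinase activity and binding assays. Z'LYTE reactions such as CSF1R ran at apparent Km ATP, while the Adapta CAMK1 assay used ATP listed as 10. Values are given as percent.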

T1 sequence (P17948 27-1338): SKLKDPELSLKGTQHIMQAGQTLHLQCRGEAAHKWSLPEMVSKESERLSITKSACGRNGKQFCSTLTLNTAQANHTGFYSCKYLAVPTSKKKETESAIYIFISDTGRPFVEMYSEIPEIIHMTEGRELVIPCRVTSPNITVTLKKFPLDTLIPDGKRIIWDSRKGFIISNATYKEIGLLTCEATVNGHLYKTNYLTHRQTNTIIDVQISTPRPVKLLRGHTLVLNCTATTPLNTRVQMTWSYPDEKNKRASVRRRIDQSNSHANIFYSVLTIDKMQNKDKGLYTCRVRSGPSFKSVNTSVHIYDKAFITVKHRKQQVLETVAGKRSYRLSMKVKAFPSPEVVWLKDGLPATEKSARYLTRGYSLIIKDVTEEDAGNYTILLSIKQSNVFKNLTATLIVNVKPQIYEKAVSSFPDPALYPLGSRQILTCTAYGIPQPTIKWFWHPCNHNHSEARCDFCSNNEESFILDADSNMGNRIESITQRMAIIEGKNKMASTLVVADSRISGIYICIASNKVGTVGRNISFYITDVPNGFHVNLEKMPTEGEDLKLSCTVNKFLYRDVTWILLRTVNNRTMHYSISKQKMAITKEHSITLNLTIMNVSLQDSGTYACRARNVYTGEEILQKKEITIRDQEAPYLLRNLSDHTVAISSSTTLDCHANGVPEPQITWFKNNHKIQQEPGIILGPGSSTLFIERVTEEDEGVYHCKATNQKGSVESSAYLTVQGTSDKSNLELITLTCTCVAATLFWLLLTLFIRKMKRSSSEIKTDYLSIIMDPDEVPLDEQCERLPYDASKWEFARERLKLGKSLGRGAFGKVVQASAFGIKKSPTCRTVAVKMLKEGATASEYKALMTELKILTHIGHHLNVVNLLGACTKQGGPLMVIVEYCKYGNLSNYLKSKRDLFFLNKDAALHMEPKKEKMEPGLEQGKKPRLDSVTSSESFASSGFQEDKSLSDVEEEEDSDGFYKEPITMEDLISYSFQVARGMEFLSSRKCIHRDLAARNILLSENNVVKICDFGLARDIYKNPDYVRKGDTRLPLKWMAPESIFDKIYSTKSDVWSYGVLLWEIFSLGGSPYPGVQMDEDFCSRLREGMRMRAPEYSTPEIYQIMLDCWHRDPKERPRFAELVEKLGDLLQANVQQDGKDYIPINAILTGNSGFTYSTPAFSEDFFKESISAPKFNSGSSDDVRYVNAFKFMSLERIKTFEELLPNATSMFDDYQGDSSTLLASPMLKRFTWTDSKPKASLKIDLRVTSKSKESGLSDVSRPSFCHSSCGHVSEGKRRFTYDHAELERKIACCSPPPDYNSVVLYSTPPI

**Q.** How did the inhibition at 1 µM turn out when CN(C(=O)CN1CCOCC1)c1ccc2sc3c(-c4cccc5c(=O)cc(N6CC7CCC(C6)O7)oc45)cccc3c2c1 [NU5455] was run?
**A.** 6.5%
